In patent US8778890B2, “Leptin antagonist and methods of use” (Temple University—of the Commonwealth System of Higher …, priority 2009, dated 2014):
Like-named read-outs stand apart in the source and are kept apart here. Where a SMILES comes first, the peptide text is derived from it. Where no end group is shown, it is not given here. [ ]: non-standard residue; d: D form. NMeR = CN[C@@H](CCCNC(=N)N)C(=O)O; aThr = C[C@H](O)[C@H](N)C(=O)O; Nva = CCC[C@H](N)C(=O)O; Ahx = NCCCCCC(=O)O; βAla = NCCC(=O)O

Key:
[1] = system: ObR-positive cancer cells (brain and breast); assay type: cell-based
Procedure: The effect of the peptides of the invention on the proliferation of ObR-positive cancer cells (brain and breast) in the presence (IC50) or absence (EC50) of exogenous leptin protein (6 nM) is summarized in Table 1.

[2] = organ toxicity testing after 14 days of treatment (Example 4); assay type: in vivo, mice and rats; details: any conditions
Procedure: (§1) Six weeks old Black/6 mice (mixed race) and F344 female rats were grown on regular lab chow and had access to food and water ad libidum. Treatment started at day 0, with four mice (2 males and 2 females) and 4 rats per group. The animals received the peptide of amino acid sequence SEQ ID NO:4 or physiological salt solution once daily. The mice and rats were dosed according to the following schedule: • Group 1: Mice, salt solution intraperitoneally; • Groups 2 and 3: Mice 0.1 mg/kg/day or 0.01 mg/kg/day peptide of amino acid sequence SEQ ID NO:4 intraperitoneally in 100 microliter salt solution; • Groups 4 and 5: Mice 1 mg/kg/day or 0.1 mg/kg/day peptide of amino acid sequence SEQ ID NO:4 subcutaneously (under the shoulder blade) in 100 microliter salt solution; • Groups 6 and 7: Mice 10 mg/kg/day or 1 mg/kg/day peptide of amino acid sequence SEQ ID NO:4 orally in 100 microliter salt solution; • Group 8: Rats, 10 microliter salt solution, intranasally; • Group 9: Rats. 0.1 mg/kg/day peptide of amino acid sequence SEQ ID NO:4 intranasally in 10 microliter salt solution.
After 14 days the animals were sacrificed and their liver, brain, kidneys and spleen were submitted for toxicity testing.

[3] = weight gain of growing mice; assay type: in vivo
Procedure: as §1, with “solution. […]” for “solution.”
The therapeutic utility of full ObR antagonists was studied further by the ability of peptide of amino acid sequence SEQ ID NO:4 to increase the appetite of normal, growing mice as measured by accelerated weight gain and increased food intake upon various modes of peptide administration. […]

[4] = chronic and acute toxicity; assay type: in vivo, mice
Procedure: The peptide of amino acid sequence SEQ ID NO:4 was evaluated for chronic and acute toxicity in mice. Three female Black/6 mice received intraperitoneally either bolus 0.5 mg/kg or 2 mg/kg or 30 mg/kg peptide SEQ ID NO:4, or 0.5 mg/kg/day or 2 mg/kg/day peptide SEQ ID NO:4 over a 10 day period. Two days after termination of the experiments, the mice were weighed and sacrificed, and the livers, brains, spleens and kidneys were weighed.

[5] = system: MCF-7 breast cancer cells (ObR-positive); assay type: cell-based, human
Source text: (§2) Immunol. Methods 94:57-63).

[6] = serum stability; assay type: in vitro ADME, mouse
Procedure: The stabilities of the peptides of amino acid sequence SEQ ID NO:4 and SEQ ID NO:49 were determined in 25% serum, and 100% serum, in terms of their half-lives. For serum stability studies, […] of an aqueous peptide stock solution, containing about 0.8 mg/mL peptide, were added to 2.5 mL of 25% or 100% aqueous pooled mouse serum. The peptide-serum mixture was thermostated at 37° C. After 0 min, 45 min, 60 min, 90 min, 2 h, 4 h, and 8 h, three 210 μL of the samples of peptides were taken and precipitated by the addition of 40 μL of 15% aqueous trichloroacetic acid. The samples were stored at 4° C. for 20 min and centrifuged. The supernatants were immediately frozen in dry-ice, and […], of each were analyzed on RP-HPLC and/or MALDI-MS.

[7] = system: LN229 (glioma) cells (ObR-positive); assay type: cell-based; details: 2 h
Source text: as §2

[8] = system: two brain tumor cell lines; test: leptin receptor antagonism in brain tumor cell lines; assay type: cell-based
[9] = system: ObR-positive cancer cells (brain and breast); assay type: cell-based; details: presence of exogenous leptin (6 nM)
[10] = mouse, in vivo, ip
[11] = ip bolus 0.5, 2 or 30 mg/kg, or 0.5 or 2 mg/kg/day for 10 days
[12] = 25% aqueous pooled mouse serum, 37° C., read-out: half-life in 25% serum
[13] = 100% pooled mouse serum, 37° C., read-out: half-life in 100% serum
[14] = mouse serum, read-out: half-life in mouse serum

CCC[C@H](NC(=O)[C@H](CCC(=O)O)NC(=O)[C@@H](N)[C@@H](C)O)C(=O)N[C@H](C(=O)N[C@@H](C)C(=O)N[C@@H](CC(C)C)C(=O)N[C@@H](CO)C(=O)N[C@@H](CCCNC(=N)N)C(=O)NCCCCCC(N)=O)C(C)C [SEQ ID NO:4, Thr-Glu-Nva-Val-Ala-Leu-Ser-Arg-AcpNH2] (H-TE[Nva]VALSR[Ahx]-NH2)
EC50 [1]: > 1000 nM | toxic effects in liver, brain, kidneys and spleen [2]: No obvious toxic effects | necropsy of the major organs ([3]; C57BL/6 mice): no signs of toxicity | NOAEL ([4]; female, Black/6, mouse, in vivo, ip, intraperitoneal bolus, read-out: highest studied dose found not toxic, acute): 30 mg/kg | NOAEL at 240 h ([4]; female, Black/6, mouse, in vivo, ip, intraperitoneal, 10 days, read-out: highest studied dose found not toxic, chronic): 2 mg/kg/day | gross necropsy, treated versus non-treated [4, 11]: no alteration | liver, brain, spleen and kidney weights, treated versus non-treated [4, 11]: identical | IC50 ([5]; 2 h): 2 to 3 nM | half-life [6, 12]: 20 min | half-life [6, 13]: 5 min | IC50 [7]: 2 to 3 nM

CCC[C@H](NC(=O)[C@H](CCC(=O)O)NC(=O)[C@@H](CO)NC(C)=O)C(=O)N[C@H](C(=O)N[C@@H](C)C(=O)N[C@@H](CC(C)C)C(=O)N[C@@H](CO)C(=O)N(C)[C@@H](CCCNC(=N)N)C(=O)NCCC(N)=O)C(C)C [SEQ ID NO:6, (D)-Ser-Glu-Nva-Val-Ala-Leu-Ser-N-MeArg-bAlaNH2] (Ac-[dS]E[Nva]VALS[NMeR][βAla]-NH2; N-terminus assumed)
EC50 [1]: > 1000 nM | pharmacology [1]: super antagonist | agonistic activity [8]: no agonistic activity | cell growth without stimulation with leptin protein [8]: does not influence cell growth | IC100, antagonistic activity against the leptin receptor ([8]; two brain tumor cell lines in vitro): 10 to 100 pM | IC100 [9]: <1 nM

CCC[C@H](NC(=O)[C@H](CCC(=O)O)NC(=O)[C@@H](N)[C@H](C)O)C(=O)N[C@H](C(=O)N[C@@H](C)C(=O)N[C@@H](CC(C)C)C(=O)N[C@@H](CO)C(=O)N[C@@H](CCCNC(=N)N)C(=O)NCCCCCC(N)=O)C(C)C [SEQ ID NO:49, alloThr-Glu-Nva-Val-Ala-Leu-Ser-Arg-AcpNH2] (H-[aThr]E[Nva]VALSR[Ahx]-NH2)
EC50 [1]: > 1000 nM | half-life [6, 12]: 40 min | half-life [6, 13]: 10 min

CCC[C@H](NC(=O)[C@H](CCCNC(=N)N)NC(=O)[C@H](CO)NC(=O)[C@H](CC(C)C)NC(=O)[C@H](C)NC(=O)[C@H](CCC)NC(=O)[C@H](CCC)NC(=O)[C@H](CCC(=O)O)NC(=O)[C@@H](N)[C@@H](C)O)C(N)=O [SEQ ID NO:47, Thr-Glu-Nva-Nva-Ala-Leu-Ser-Arg-NvaNH2] (H-TE[Nva][Nva]ALSR[Nva]-NH2)
EC50 [1]: > 1000 nM | half-life [6, 14]: 8 min

Alexa 680-labeled peptide of amino acid sequence SEQ ID NO:49: peptide of SEQ ID NO:49 labeled with the fluorescent dye Alexa 680 ([aThr]E[Nva]VALSR[Ahx]-NH2; not fully specified (N-terminus); printed as alloThr-Glu-Nva-Val-Ala-Leu-Ser-Arg-AcpNH2; also: Alexa 680 label, site not given here)
migration into further tissues, blood-brain barrier penetration [10]: migrated into the tail, limbs and the brain

CCC[C@H](NC(=O)[C@H](CCCNC(=N)N)NC(=O)[C@H](CO)NC(=O)[C@H](CC(C)C)NC(=O)[C@H](C)NC(=O)[C@H](CCC)NC(=O)[C@H](CCC)NC(=O)[C@H](CCC(=O)O)NC(=O)[C@@H](NC(C)=O)[C@@H](C)O)C(N)=O [SEQ ID NO:48, AcNH-Thr-Glu-Nva-Nva-Ala-Leu-Ser-Arg-NvaNH2] (Ac-TE[Nva][Nva]ALSR[Nva]-NH2)
cell viability profile compared with the unprotected variant [5]: no change | half-life [6, 14]: 14 min

CCC[C@H](NC(=O)[C@@H](N)CCC(=O)O)C(=O)N[C@H](C(=O)N[C@@H](C)C(=O)N[C@@H](CC(C)C)C(=O)N[C@@H](CO)C(=O)N[C@@H](CCCNC(=N)N)C(=O)NCCCCCC(N)=O)C(C)C [SEQ ID NO:51, Glu-Nva-Val-Ala-Leu-Ser-Arg-AcpNH2] (H-E[Nva]VALSR[Ahx]-NH2; N-terminus assumed)
EC50 [1]: > 500 nM | pharmacology [1]: weak full | IC100 [9]: 100 nM

B1: leptin: neurohormone, native ObR ligand; human leptin purchased from R&D Systems (protein, listed as Homo sapiens)
chain: VPIQKVQDDTKTLIKTIVTRINDISHTQSVSAKQRVTGLDFIPGLHPILSLSKMDQTLAVYQQVLTSLPSQNVLQIANDLENLRDLLHLLAFSKSCSLPQTSGLQKPESLDGVLEASLYSTEVVALSRLQGSLQDILQQLDVSPEC
reduction of normal weight gain compared to untreated mice ([3]; 0.1 mg/kg/day intraperitoneally, day 8): 5%
